The source of these data is ChEMBL document CHEMBL1136853, “Synthesis and SAR of vinca alkaloid analogues” (Bioorg Med Chem Lett, 2009).

The test system of one assay is MCF7. Nature of the assay: Cytotoxicity against human MCF7 cells. It is filed as functional.
The subject of the next assay is HeLa. Nature of the assay: Cytotoxicity against human HeLa cells. The assay is classed as functional.

Structures are written as SMILES.

In the case of `CC[C@]1(O)C[C@H]2CN(CCc3c([nH]c4ccc(-c5ccccc5)cc34)[C@@](C(=O)OC)(c3cc4c(cc3OC)N(C=O)[C@H]3[C@@](O)(C(=O)OC)[C@H](OC(C)=O)[C@]5(CC)CC=CN6CC[C@]43[C@@H]65)C2)C1`, the GI50 – broadly, the concentration at which growth is held to half of that of the control – turned out to be 35 nM in the assay with MCF7 and 50 nM in the assay with HeLa.
In the same order, the values of `CC[C@]1(O)C[C@H]2CN(CCc3c([nH]c4ccc(C#N)cc34)[C@@](C(=O)OC)(c3cc4c(cc3OC)N(C=O)[C@H]3[C@@](O)(C(=O)OC)[C@H](OC(C)=O)[C@]5(CC)CC=CN6CC[C@]43[C@@H]65)C2)C1` are 4 nM and 10 nM.
For the compound `CCC1=C[C@H]2CN(C1)Cc1c([nH]c3ccc(C(N)=O)cc13)[C@@](C(=O)OC)(c1cc3c(cc1OC)N(C)[C@H]1[C@@](O)(C(=O)OC)[C@H](OC(C)=O)[C@]4(CC)CC=CN5CC[C@]31[C@@H]54)C2`, the GI50 in the assay with MCF7 and in the assay on HeLa was > 1000 nM each time.
Turning to `CC[C@]1(O)C[C@H]2CN(CCc3c([nH]c4ccc(C(N)=O)cc34)[C@@](C(=O)OC)(c3cc4c(cc3OC)N(C)[C@H]3[C@@](O)(C(=O)OC)[C@H](OC(C)=O)[C@]5(CC)CC=CN6CC[C@]43[C@@H]65)C2)C1`, the GI50 with MCF7 and in the assay with HeLa was > 1000 nM in each case.
As for `C#Cc1ccc2[nH]c3c(c2c1)CN1CC(CC)=C[C@@H](C1)C[C@]3(C(=O)OC)c1cc2c(cc1OC)N(C)[C@H]1[C@@](O)(C(=O)OC)[C@H](OC(C)=O)[C@]3(CC)CC=CN4CC[C@]21[C@@H]43`, the results for the GI50 in the assay with MCF7 and in the assay on HeLa were 5 nM and 0.4 nM, respectively.
In the same order, the values of `CCC1=C[C@H]2CN(C1)Cc1c([nH]c3ccc(C(=O)OC)cc13)[C@@](C(=O)OC)(c1cc3c(cc1OC)N(C)[C@H]1[C@@](O)(C(=O)OC)[C@H](OC(C)=O)[C@]4(CC)CC=CN5CC[C@]31[C@@H]54)C2` are 50 nM and 30 nM.
As to `CC[C@]1(O)C[C@H]2CN(CCc3c([nH]c4ccc(-c5nccs5)cc34)[C@@](C(=O)OC)(c3cc4c(cc3OC)N(C)[C@H]3[C@@](O)(C(=O)OC)[C@H](OC(C)=O)[C@]5(CC)CC=CN6CC[C@]43[C@@H]65)C2)C1`, the results for the 50% growth inhibitory concentration (GI50) in the assay on MCF7 and in the assay on HeLa were 100 nM and 200 nM, respectively.
For `CCC1=C[C@H]2CN(C1)Cc1c([nH]c3ccc(C#N)cc13)[C@@](C(=O)OC)(c1cc3c(cc1OC)N(C)[C@H]1[C@@](O)(C(=O)OC)[C@H](OC(C)=O)[C@]4(CC)CC=CN5CC[C@]31[C@@H]54)C2` the same measures were 6 nM and 1 nM.
In the same order, the values of `CCC1=C[C@H](C[C@](C(=O)OC)(c2cc3c(cc2OC)N(C)[C@H]2[C@@](O)(C(=O)OC)[C@H](OC(C)=O)[C@]4(CC)CC=CN5CC[C@]32[C@@H]54)c2[nH]c3ccc(N)cc3c2CC)CNC1` are 600 nM and 300 nM.
For `CC[C@]1(O)C[C@H]2CN(CCc3c([nH]c4ccc(SCC(=O)O)cc34)[C@@](C(=O)OC)(c3cc4c(cc3OC)N(C)[C@H]3[C@@](O)(C(=O)OC)[C@H](OC(C)=O)[C@]5(CC)CC=CN6CC[C@]43[C@@H]65)C2)C1` the same measures were 200 nM and 50 nM.
`CCC1=C[C@H]2CN(C1)Cc1c([nH]c3ccc(C(C)=O)cc13)[C@@](C(=O)OC)(c1cc3c(cc1OC)N(C)[C@H]1[C@@](O)(C(=O)OC)[C@H](OC(C)=O)[C@]4(CC)CC=CN5CC[C@]31[C@@H]54)C2`: the concentration for 50% growth inhibition (GI50) with MCF7 is 20 nM; in the assay with HeLa, 4 nM.
Regarding `CC[C@]1(O)C[C@H]2CN(CCc3c([nH]c4ccc(N5CCCCC5)cc34)[C@@](C(=O)OC)(c3cc4c(cc3OC)N(C)[C@H]3[C@@](O)(C(=O)OC)[C@H](OC(C)=O)[C@]5(CC)CC=CN6CC[C@]43[C@@H]65)C2)C1`, the GI50 in the assay on MCF7 came out at 30 nM; in the assay on HeLa, 20 nM.
Consider `CC[C@]1(O)C[C@H]2CN(CCc3c([nH]c4ccc(-c5cccc(F)c5)cc34)[C@@](C(=O)OC)(c3cc4c(cc3OC)N(C)[C@H]3[C@@](O)(C(=O)OC)[C@H](OC(C)=O)[C@]5(CC)CC=CN6CC[C@]43[C@@H]65)C2)C1`, for which the 50% growth inhibitory concentration (GI50) with MCF7 and with HeLa was 300 nM throughout.
In the case of `CC[C@]1(O)C[C@H]2CN(CCc3c([nH]c4ccc(C#N)cc34)[C@@](C(=O)OC)(c3cc4c(cc3OC)N(C)[C@H]3[C@@](O)(C(=O)OC)[C@H](OC(C)=O)[C@]5(CC)CC=CN6CC[C@]43[C@@H]65)C2)C1`, the GI50 in the assay on MCF7 and with HeLa was 3 nM throughout.
`CCc1ccc2[nH]c3c(c2c1)CCN1C[C@H](C[C@@](O)(CC)C1)C[C@]3(C(=O)OC)c1cc2c(cc1OC)N(C)[C@H]1[C@@](O)(C(=O)OC)[C@H](OC(C)=O)[C@]3(CC)CC=CN4CC[C@]21[C@@H]43`: the GI50 in the assay with MCF7 was determined as 0.6 nM; with HeLa, 0.3 nM.
For `CCSc1ccc2[nH]c3c(c2c1)CCN1C[C@H](C[C@@](O)(CC)C1)C[C@]3(C(=O)OC)c1cc2c(cc1OC)N(C)[C@H]1[C@@](O)(C(=O)OC)[C@H](OC(C)=O)[C@]3(CC)CC=CN4CC[C@]21[C@@H]43` the same measures were 3 nM and 2 nM.
In the same order, the values of `CCC1=C[C@H]2CN(C1)Cc1c([nH]c3ccc(-c4ccccc4)cc13)[C@@](C(=O)OC)(c1cc3c(cc1OC)N(C)[C@H]1[C@@](O)(C(=O)OC)[C@H](OC(C)=O)[C@]4(CC)CC=CN5CC[C@]31[C@@H]54)C2` are 300 nM and 70 nM.
On to `CCC1=C[C@H]2CN(C1)Cc1c([nH]c3ccc(-c4cccc(F)c4)cc13)[C@@](C(=O)OC)(c1cc3c(cc1OC)N(C)[C@H]1[C@@](O)(C(=O)OC)[C@H](OC(C)=O)[C@]4(CC)CC=CN5CC[C@]31[C@@H]54)C2`, for which the GI50 in the assay with MCF7 and with HeLa was > 1000 nM in each case.
As for `CC[C@]1(O)C[C@H]2CN(CCc3c([nH]c4ccc(N)cc34)[C@@](C(=O)OC)(c3cc4c(cc3OC)N(C)[C@H]3[C@@](O)(C(=O)OC)[C@H](OC(C)=O)[C@]5(CC)CC=CN6CC[C@]43[C@@H]65)C2)C1`, the GI50 with MCF7 and in the assay with HeLa was 200 nM each time.
For `CCSc1ccc2[nH]c3c(c2c1)CN1CC(CC)=C[C@@H](C1)C[C@]3(C(=O)OC)c1cc2c(cc1OC)N(C)[C@H]1[C@@](O)(C(=O)OC)[C@H](OC(C)=O)[C@]3(CC)CC=CN4CC[C@]21[C@@H]43`, the 50% growth inhibitory concentration (GI50) in the assay with MCF7 amounted to 20 nM; in the assay on HeLa, 5 nM.
In the same order, the values of `CC[C@]1(O)C[C@H]2CN(CCc3c([nH]c4ccc(-c5ccccc5)cc34)[C@@](C(=O)OC)(c3cc4c(cc3OC)N(C)[C@H]3[C@@](O)(C(=O)OC)[C@H](OC(C)=O)[C@]5(CC)CC=CN6CC[C@]43[C@@H]65)C2)C1` are 300 nM and 400 nM.
For the compound `CC[C@]1(O)C[C@H]2CN(CCc3c([nH]c4ccc(C)cc34)[C@@](C(=O)OC)(c3cc4c(cc3OC)N(C=O)[C@H]3[C@@](O)(C(=O)OC)[C@H](OC(C)=O)[C@]5(CC)CC=CN6CC[C@]43[C@@H]65)C2)C1`, the results for the concentration for 50% growth inhibition (GI50) in the assay with MCF7 and in the assay with HeLa were 3 nM and 1 nM, respectively.
For `CC[C@]1(O)C[C@H]2CN(CCc3c([nH]c4ccccc34)[C@@](C(=O)OC)(c3cc4c(cc3OC)N(C=O)[C@H]3[C@@](O)(C(=O)OC)[C@H](OC(C)=O)[C@]5(CC)C=CCN6CC[C@]43[C@@H]65)C2)C1` [VINCRISTINE] the same measures were 1.5 nM and 1.7 nM.
In the case of `CCC1=C[C@H]2CN(C1)Cc1c([nH]c3ccc(C(=O)O)cc13)[C@@](C(=O)OC)(c1cc3c(cc1OC)N(C)[C@H]1[C@@](O)(C(=O)OC)[C@H](OC(C)=O)[C@]4(CC)CC=CN5CC[C@]31[C@@H]54)C2`, the GI50 with MCF7 and with HeLa was > 1000 nM throughout.
Take `CC[C@]1(O)C[C@H]2CN(CCc3c([nH]c4ccc(C(=O)O)cc34)[C@@](C(=O)OC)(c3cc4c(cc3OC)N(C)[C@H]3[C@@](O)(C(=O)OC)[C@H](OC(C)=O)[C@]5(CC)CC=CN6CC[C@]43[C@@H]65)C2)C1`: the 50% growth inhibitory concentration (GI50) with MCF7 and in the assay with HeLa was > 1000 nM throughout.
On to `CC[C@]1(O)C[C@H]2CN(CCc3c([nH]c4ccc(C(=O)OC)cc34)[C@@](C(=O)OC)(c3cc4c(cc3OC)N(C)[C@H]3[C@@](O)(C(=O)OC)[C@H](OC(C)=O)[C@]5(CC)CC=CN6CC[C@]43[C@@H]65)C2)C1`, for which the GI50 in the assay on MCF7 was 30 nM; with HeLa, 20 nM.
In the same order, the values of `CC[C@]1(O)C[C@@H]2CN(CCc3c([nH]c4ccccc34)[C@@](C(=O)OC)(c3cc4c(cc3OC)N(C)[C@H]3[C@@](O)(C(=O)OC)[C@H](OC(C)=O)[C@]5(CC)C=CCN6CC[C@]43[C@@H]65)C2)C1` [VINBLASTINE] are 0.4 nM and 0.9 nM.
Consider `CC[C@]1(O)C[C@H]2CN(CCc3c([nH]c4ccc(SC)cc34)[C@@](C(=O)OC)(c3cc4c(cc3OC)N(C=O)[C@H]3[C@@](O)(C(=O)OC)[C@H](OC(C)=O)[C@]5(CC)CC=CN6CC[C@]43[C@@H]65)C2)C1`, for which the GI50 in the assay on MCF7 and in the assay with HeLa was 3 nM in each case.
In the case of `C#Cc1ccc2[nH]c3c(c2c1)CCN1C[C@H](C[C@@](O)(CC)C1)C[C@]3(C(=O)OC)c1cc2c(cc1OC)N(C)[C@H]1[C@@](O)(C(=O)OC)[C@H](OC(C)=O)[C@]3(CC)CC=CN4CC[C@]21[C@@H]43`, the GI50 with MCF7 amounted to 5 nM; in the assay on HeLa, 20 nM.
For `CC[C@]1(O)C[C@H]2CN(CCc3c([nH]c4ccc(C(C)=O)cc34)[C@@](C(=O)OC)(c3cc4c(cc3OC)N(C)[C@H]3[C@@](O)(C(=O)OC)[C@H](OC(C)=O)[C@]5(CC)CC=CN6CC[C@]43[C@@H]65)C2)C1` the same measures were 100 nM and 200 nM.
For `CCc1ccc2[nH]c3c(c2c1)CCN1C[C@H](C[C@@](O)(CC)C1)C[C@]3(C(=O)OC)c1cc2c(cc1OC)N(C=O)[C@H]1[C@@](O)(C(=O)OC)[C@H](OC(C)=O)[C@]3(CC)CC=CN4CC[C@]21[C@@H]43` the same measures were 10 nM and 5 nM.
